Results from ChEMBL document CHEMBL1130052, “Substituted [(4-phenylpiperazinyl)-methyl]benzamides: selective dopamine D4 agonists” (J Med Chem, 1997).

Experiments:
[1] = biological target: D(2) dopamine receptor (Homo sapiens, UniProt P14416); assay: Binding affinity for human Dopamine receptor D2 expressed in CHO K1 transfected cells using [3H]spiperone as radioligand; type: cell-based
[2] = biological target: D(3) dopamine receptor (Homo sapiens, UniProt P35462); assay: Binding affinity for human Dopamine receptor D3 expressed in CHO K1 transfected cells using [3H]spiperone as radioligand; type: cell-based
[3] = biological target: T1, D(4) dopamine receptor (Homo sapiens, UniProt P21917); assay: biochemical
T1 sequence (P21917 whole entry): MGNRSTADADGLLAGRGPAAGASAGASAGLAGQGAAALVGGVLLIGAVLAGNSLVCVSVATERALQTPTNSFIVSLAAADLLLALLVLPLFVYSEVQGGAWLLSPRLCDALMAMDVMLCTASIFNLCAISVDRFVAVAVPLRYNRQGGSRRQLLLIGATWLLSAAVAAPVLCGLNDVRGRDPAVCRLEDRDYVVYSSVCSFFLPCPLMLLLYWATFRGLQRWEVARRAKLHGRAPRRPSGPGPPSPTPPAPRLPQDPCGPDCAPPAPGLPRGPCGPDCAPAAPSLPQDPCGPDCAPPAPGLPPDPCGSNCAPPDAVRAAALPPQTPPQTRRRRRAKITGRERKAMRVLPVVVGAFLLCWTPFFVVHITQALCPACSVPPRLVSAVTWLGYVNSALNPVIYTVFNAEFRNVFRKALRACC
Description: Binding affinity for human Dopamine receptor D4 expressed in CHO K1 transfected cells using [3H]spiperone as radioligand

[4] = biological target: T2, 5-hydroxytryptamine receptor 1A (Mus musculus, UniProt Q64264); assay: Binding affinity at 5-hydroxytryptamine 1A receptor
T2 sequence (Q64264 whole entry): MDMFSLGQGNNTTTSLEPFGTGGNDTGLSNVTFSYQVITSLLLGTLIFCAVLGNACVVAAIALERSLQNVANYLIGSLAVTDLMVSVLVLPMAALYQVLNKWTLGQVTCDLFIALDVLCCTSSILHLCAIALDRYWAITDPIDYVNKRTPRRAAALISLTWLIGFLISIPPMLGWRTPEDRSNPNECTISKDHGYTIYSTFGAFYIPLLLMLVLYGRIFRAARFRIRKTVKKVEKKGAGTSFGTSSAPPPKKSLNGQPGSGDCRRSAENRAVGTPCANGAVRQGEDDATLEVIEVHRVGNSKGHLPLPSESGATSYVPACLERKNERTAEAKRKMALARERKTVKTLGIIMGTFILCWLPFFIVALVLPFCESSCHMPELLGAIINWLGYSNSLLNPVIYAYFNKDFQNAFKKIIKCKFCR

[5] = biological target: 5-hydroxytryptamine receptor 2A (Homo sapiens, UniProt P28223); assay: Binding affinity at 5-hydroxytryptamine 2A receptor
5-hydroxytryptamine receptor 2A, sequence (P28223 whole entry): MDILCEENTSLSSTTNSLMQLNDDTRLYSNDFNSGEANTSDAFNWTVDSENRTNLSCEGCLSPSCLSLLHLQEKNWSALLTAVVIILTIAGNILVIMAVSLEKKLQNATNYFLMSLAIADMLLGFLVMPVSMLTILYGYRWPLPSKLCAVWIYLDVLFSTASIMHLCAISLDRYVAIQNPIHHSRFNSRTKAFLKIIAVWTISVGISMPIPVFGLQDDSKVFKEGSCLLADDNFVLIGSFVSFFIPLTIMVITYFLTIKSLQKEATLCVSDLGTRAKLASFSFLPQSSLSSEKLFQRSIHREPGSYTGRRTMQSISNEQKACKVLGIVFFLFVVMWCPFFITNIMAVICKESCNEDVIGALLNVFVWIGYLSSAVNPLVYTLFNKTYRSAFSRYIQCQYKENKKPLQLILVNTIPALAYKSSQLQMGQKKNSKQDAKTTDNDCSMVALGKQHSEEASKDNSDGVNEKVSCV

D(2) dopamine receptor, sequence (P14416 whole entry): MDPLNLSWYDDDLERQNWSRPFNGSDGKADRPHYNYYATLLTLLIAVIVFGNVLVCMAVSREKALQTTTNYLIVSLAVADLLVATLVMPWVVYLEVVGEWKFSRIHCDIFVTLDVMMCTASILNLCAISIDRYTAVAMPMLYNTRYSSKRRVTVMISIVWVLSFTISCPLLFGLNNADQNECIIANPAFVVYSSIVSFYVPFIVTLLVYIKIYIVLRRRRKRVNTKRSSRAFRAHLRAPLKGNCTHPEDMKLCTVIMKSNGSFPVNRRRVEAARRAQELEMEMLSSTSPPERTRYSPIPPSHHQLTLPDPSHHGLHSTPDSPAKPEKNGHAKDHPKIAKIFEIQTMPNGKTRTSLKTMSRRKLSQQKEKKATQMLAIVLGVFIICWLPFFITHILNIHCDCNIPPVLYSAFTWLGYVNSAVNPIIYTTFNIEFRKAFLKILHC
D(3) dopamine receptor, sequence (P35462 whole entry): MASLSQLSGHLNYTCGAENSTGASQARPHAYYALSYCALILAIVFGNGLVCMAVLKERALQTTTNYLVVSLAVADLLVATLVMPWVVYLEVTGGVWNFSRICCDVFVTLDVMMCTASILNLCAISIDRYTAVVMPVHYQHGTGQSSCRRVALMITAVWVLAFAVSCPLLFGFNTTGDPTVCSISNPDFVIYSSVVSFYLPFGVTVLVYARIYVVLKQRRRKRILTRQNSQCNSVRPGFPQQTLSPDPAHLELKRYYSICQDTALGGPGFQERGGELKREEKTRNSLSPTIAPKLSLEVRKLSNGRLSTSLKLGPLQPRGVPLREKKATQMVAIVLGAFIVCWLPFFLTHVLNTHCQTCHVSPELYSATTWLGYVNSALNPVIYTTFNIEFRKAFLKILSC

Row | SMILES | Ki [1] [nM] | Ki [2] [nM] | Ki [3] [nM] | Ki [4] [nM] | Ki [5] [nM]
1 | O=C(NCN1CCN(c2ccccc2Cl)CC1)c1cccc(Cl)c1 | 2420 | 364 | 41 | – | –
2 | COc1ccccc1N1CCN(CNC(=O)c2cccc(C)c2)CC1 | 835 | 2480 | 6.7 | – | –
3 | O=C(NCN1CCN(c2ccccc2Cl)CC1)c1ccc(Cl)cc1 | – | 66 | 5.3 | – | –
4 | Cc1cccc(C(=O)NCN2CCN(c3ccccc3Cl)CC2)c1 | 1330 | 464 | 27 | – | –
5 | Cc1ccc(C(=O)NCN2CCN(c3ccccc3C#N)CC2)cc1 | 1150 | 377 | 6.5 | – | –
6 | COc1ccccc1N1CCN(CNC(=O)c2cccc(Cl)c2)CC1 | 451 | 1450 | 15 | – | –
7 | COc1ccccc1N1CCN(CNC(=O)c2ccc(Cl)cc2)CC1 | 349 | 268 | 14 | – | –
8 | COc1ccccc1N1CCN(CNC(=O)c2ccc(C)cc2)CC1 | 291 | 174 | 7.7 | – | –
9 | Cc1ccc(C(=O)NCN2CCN(c3ccccc3Cl)CC2)cc1 | 466 | 49 | 12 | – | –

Continued, values first:

Row | Ki [1] [nM] | Ki [2] [nM] | Ki [3] [nM] | Ki [4] [nM] | Ki [5] [nM] | SMILES
10 | 1500 | 177 | 32 | – | – | O=C(NCN1CCN(c2ccccc2Cl)CC1)c1ccccc1
11 | 4180 | > 3000 | 27 | – | – | N#Cc1ccccc1N1CCN(CNC(=O)c2ccccc2)CC1
12 | – | 2470 | 22 | – | – | COc1ccccc1N1CCN(CNC(=O)c2ccccc2)CC1
13 | 897 | 2270 | 34 | – | – | N#Cc1ccccc1N1CCN(CNC(=O)c2cccc(Cl)c2)CC1
14 | 929 | 600 | 5.5 | – | – | N#Cc1ccccc1N1CCN(CNC(=O)c2ccc(Cl)cc2)CC1
15 | 3740 | 2810 | – | 385 | 4010 | Cc1cccc(C(=O)NCN2CCN(c3ccccc3C#N)CC2)c1 [PD-168,077]
